In patent publication US4015974A, “Amido phosphorothiolates” (priority 1972, dated 1977):

Columns and labels:
Assay type in all cases: in vivo
[1] = tested on: barnyard grass (Echinochloa crus-galli); assay: Pre-emergence application, herbicidal effect on barnyard grass (Table 1); design: key: 0: not damaged; 5: completely killed; settings: 20 days after application, score 0-5
Method in brief: (§1)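 Compounds, formulated as water-diluted wettable powder, were applied to the soil surface after sowing and covering the seeds in pots of about 10 cm. Effects were rated on a 0 (no damage) to 5 (complete kill) scale after 20 days of greenhouse growth.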

[2] = tested on: large crabgrass (Digitaria sanguinalis); assay: Pre-emergence application, herbicidal effect on large crabgrass (Table 1); design: key: 0: not damaged; 5: completely killed; settings: 20 days after application, score 0-5
Method in brief: as §1

radish = assay: Pre-emergence application, herbicidal effect on radish (Table 1); design: key: 0: not damaged; 5: completely killed; settings: 20 days after application, score 0-5
Method in brief: as §1

[3] = tested on: redroot pigweed (Amaranthus retroflexus); assay: Pre-emergence application, herbicidal effect on redroot pigweed (Table 1); design: key: 0: not damaged; 5: completely killed; settings: 20 days after application, score 0-5
Method in brief: as §1

[4] = tested on: common purslane (Portulaca oleracea); assay: Pre-emergence application, herbicidal effect on common purslane (Table 1); design: key: 0: not damaged; 5: completely killed; settings: 20 days after application, score 0-5
Method in brief: as §1

[5] = tested on: common lambsquarter (Chenopodium album); assay: Pre-emergence application, herbicidal effect on common lambsquarter (Table 1); design: key: 0: not damaged; 5: completely killed; settings: 20 days after application, score 0-5
Method in brief: as §1

rice = assay: Water application, phytotoxicity on rice (Table 2); design: key: 0: no effect; 1: very slightly affected; 2: slightly affected; 3: moderately affected; 4: considerably affected; 5: completely killed; settings: 25 days, score 0-5
Method in brief: (§2)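 Ratings on a 0–5 scale taken 25 days post-treatment for rice injury, barnyard grass, and naturally emerging monochoria, false pimpernel and toothcup. Compounds as wettable powder went onto waterlogged paddy soil holding rice seedlings transplanted at 3 leaves and barnyard grass seed.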

nematode = assay: Effect on nematode (Table 7); design: tested at 500 ppm; settings: 500 p.p.m., 24 hours
Experimental: 0.5 ml. of a nematode-containing aqueous solution separated from food according to Baermann's method was placed in a test tube with ground stopper containing 0.5 ml. of an aqueous dilute solution of each emulsifiable concentrates of the present compounds. The concentration of the active ingredient in the mixture was adjusted to 500 p.p.m. After 24 hours, the death and alive were observed microscopically to calculate the mortality.

[6] = tested on: barnyard grass (Echinochloa crus-galli); assay: Water application, herbicidal effect on barnyard grass (Table 2); design: key: 0: not damaged; 5: completely killed; settings: 25 days, score 0-5
Method in brief: as §2

[7] = tested on: broad-leaved weeds, e.g., monochoria, false pimpernel and toothcup; assay: Water application, herbicidal effect on broad-leaved weeds (Table 2); design: key: 0: not damaged; 5: completely killed; settings: 25 days, score 0-5
Method in brief: as §2

CCOP(=O)(SCC(=O)N1CCCCC1C)SCc1ccc(C)cc1 (stereo not drawn) [Compound 52]
Herbicidal effect, barnyard grass ([1]; 10 g./a.): 5
Herbicidal effect, barnyard grass ([1]; 20 g./a.): 5
Herbicidal effect, barnyard grass ([1]; 40 g./a.): 5
Herbicidal effect, large crabgrass ([2]; 10 g./a.): 5
Herbicidal effect, large crabgrass ([2]; 20 g./a.): 5
Herbicidal effect, large crabgrass ([2]; 40 g./a.): 5
Herbicidal effect, radish (radish; 10 g./a.): 0
Herbicidal effect, radish (radish; 20 g./a.): 0
Herbicidal effect, radish (radish; 40 g./a.): 0
Herbicidal effect, redroot pigweed ([3]; 10 g./a.): 4
Herbicidal effect, redroot pigweed ([3]; 20 g./a.): 4
Herbicidal effect, redroot pigweed ([3]; 40 g./a.): 5
Herbicidal effect, common purslane ([4]; 10 g./a.): 3
Herbicidal effect, common purslane ([4]; 20 g./a.): 4
Herbicidal effect, common purslane ([4]; 40 g./a.): 5
Herbicidal effect, common lambsquarter ([5]; 10 g./a.): 3
Herbicidal effect, common lambsquarter ([5]; 20 g./a.): 4
Herbicidal effect, common lambsquarter ([5]; 40 g./a.): 5
Phytotoxicity on rice (rice; 10 g/a): 0
Phytotoxicity on rice (rice; 20 g/a): 0
Phytotoxicity on rice (rice; 40 g/a): 0
Mortality (nematode): 85.7%
Herbicidal effects, barnyard grass ([6]; 10 g/a): 5
Herbicidal effects, barnyard grass ([6]; 20 g/a): 5
Herbicidal effects, barnyard grass ([6]; 40 g/a): 5
Herbicidal effects, broad-leaved weeds ([7]; 10 g/a): 5
Herbicidal effects, broad-leaved weeds ([7]; 20 g/a): 5
Herbicidal effects, broad-leaved weeds ([7]; 40 g/a): 5

CCOP(=O)(SCC(=O)N1CCCCC1CC)SCc1ccc(Br)cc1 (stereo not drawn) [Compound 57]
Mortality (nematode): 91.0%

C#CCSP(=O)(OCC)SCC(=O)N1CCCCC1C (stereo not drawn) [Compound 33]
Mortality (nematode): 100%

ClC=CCCl [Dichloropropene, reference compound]
Mortality (nematode): 79.3%

CCOP(=O)(SCC(=O)N1CCCC(C)C1)SCC(C)C (stereo not drawn) [Compound 28]
Mortality (nematode): 100%

CCCSP(=O)(OCC)SCC(=O)N1CCC(C)CC1 (stereo not drawn) [Compound 12]
Herbicidal effect, barnyard grass ([1]; 10 g./a.): 5
Herbicidal effect, barnyard grass ([1]; 20 g./a.): 5
Herbicidal effect, barnyard grass ([1]; 40 g./a.): 5
Herbicidal effect, large crabgrass ([2]; 10 g./a.): 5
Herbicidal effect, large crabgrass ([2]; 20 g./a.): 5
Herbicidal effect, large crabgrass ([2]; 40 g./a.): 5
Herbicidal effect, radish (radish; 10 g./a.): 0
Herbicidal effect, radish (radish; 20 g./a.): 0
Herbicidal effect, radish (radish; 40 g./a.): 0
Herbicidal effect, redroot pigweed ([3]; 10 g./a.): 4
Herbicidal effect, redroot pigweed ([3]; 20 g./a.): 5
Herbicidal effect, redroot pigweed ([3]; 40 g./a.): 5
Herbicidal effect, common purslane ([4]; 10 g./a.): 5
Herbicidal effect, common purslane ([4]; 20 g./a.): 5
Herbicidal effect, common purslane ([4]; 40 g./a.): 5
Herbicidal effect, common lambsquarter ([5]; 10 g./a.): 5
Herbicidal effect, common lambsquarter ([5]; 20 g./a.): 5
Herbicidal effect, common lambsquarter ([5]; 40 g./a.): 5
Phytotoxicity on rice (rice; 10 g/a): 0
Phytotoxicity on rice (rice; 20 g/a): 0
Phytotoxicity on rice (rice; 40 g/a): 0
Mortality (nematode): 100%
Herbicidal effects, barnyard grass ([6]; 10 g/a): 5
Herbicidal effects, barnyard grass ([6]; 20 g/a): 5
Herbicidal effects, barnyard grass ([6]; 40 g/a): 5
Herbicidal effects, broad-leaved weeds ([7]; 10 g/a): 5
Herbicidal effects, broad-leaved weeds ([7]; 20 g/a): 5
Herbicidal effects, broad-leaved weeds ([7]; 40 g/a): 5

CCOP(=O)(SCC)SCC(=O)N1CCCCC1CC (stereo not drawn) [Compound 75]
Herbicidal effect, barnyard grass ([1]; 10 g./a.): 5
Herbicidal effect, barnyard grass ([1]; 20 g./a.): 5
Herbicidal effect, barnyard grass ([1]; 40 g./a.): 5
Herbicidal effect, large crabgrass ([2]; 10 g./a.): 5
Herbicidal effect, large crabgrass ([2]; 20 g./a.): 5
Herbicidal effect, large crabgrass ([2]; 40 g./a.): 5
Herbicidal effect, radish (radish; 10 g./a.): 0
Herbicidal effect, radish (radish; 20 g./a.): 1
Herbicidal effect, radish (radish; 40 g./a.): 2
Herbicidal effect, redroot pigweed ([3]; 10 g./a.): 5
Herbicidal effect, redroot pigweed ([3]; 20 g./a.): 5
Herbicidal effect, redroot pigweed ([3]; 40 g./a.): 5
Herbicidal effect, common purslane ([4]; 10 g./a.): 5
Herbicidal effect, common purslane ([4]; 20 g./a.): 5
Herbicidal effect, common purslane ([4]; 40 g./a.): 5
Herbicidal effect, common lambsquarter ([5]; 10 g./a.): 5
Herbicidal effect, common lambsquarter ([5]; 20 g./a.): 5
Herbicidal effect, common lambsquarter ([5]; 40 g./a.): 5
Phytotoxicity on rice (rice; 10 g/a): 0
Phytotoxicity on rice (rice; 20 g/a): 0
Phytotoxicity on rice (rice; 40 g/a): 1
Herbicidal effects, barnyard grass ([6]; 10 g/a): 5
Herbicidal effects, barnyard grass ([6]; 20 g/a): 5
Herbicidal effects, barnyard grass ([6]; 40 g/a): 5
Herbicidal effects, broad-leaved weeds ([7]; 10 g/a): 5
Herbicidal effects, broad-leaved weeds ([7]; 20 g/a): 5
Herbicidal effects, broad-leaved weeds ([7]; 40 g/a): 5

CCCCCSP(=O)(OCCC)SCC(=O)N1CCCCC1CC (stereo not drawn) [Compound 89]
Herbicidal effect, barnyard grass ([1]; 10 g./a.): 4
Herbicidal effect, barnyard grass ([1]; 20 g./a.): 5
Herbicidal effect, barnyard grass ([1]; 40 g./a.): 5
Herbicidal effect, large crabgrass ([2]; 10 g./a.): 4
Herbicidal effect, large crabgrass ([2]; 20 g./a.): 5
Herbicidal effect, large crabgrass ([2]; 40 g./a.): 5
Herbicidal effect, radish (radish; 10 g./a.): 0
Herbicidal effect, radish (radish; 20 g./a.): 0
Herbicidal effect, radish (radish; 40 g./a.): 0
Herbicidal effect, redroot pigweed ([3]; 10 g./a.): 3
Herbicidal effect, redroot pigweed ([3]; 20 g./a.): 4
Herbicidal effect, redroot pigweed ([3]; 40 g./a.): 5
Herbicidal effect, common purslane ([4]; 10 g./a.): 3
Herbicidal effect, common purslane ([4]; 20 g./a.): 4
Herbicidal effect, common purslane ([4]; 40 g./a.): 5
Herbicidal effect, common lambsquarter ([5]; 10 g./a.): 3
Herbicidal effect, common lambsquarter ([5]; 20 g./a.): 4
Herbicidal effect, common lambsquarter ([5]; 40 g./a.): 5
Phytotoxicity on rice (rice; 10 g/a): 0
Phytotoxicity on rice (rice; 20 g/a): 0
Phytotoxicity on rice (rice; 40 g/a): 0
Herbicidal effects, barnyard grass ([6]; 10 g/a): 5
Herbicidal effects, barnyard grass ([6]; 20 g/a): 5
Herbicidal effects, barnyard grass ([6]; 40 g/a): 5
Herbicidal effects, broad-leaved weeds ([7]; 10 g/a): 5
Herbicidal effects, broad-leaved weeds ([7]; 20 g/a): 5
Herbicidal effects, broad-leaved weeds ([7]; 40 g/a): 5

CCOP(=O)(SCC(=O)N1CCCC(C)C1)SC(C)C (stereo not drawn) [Compound 22]
Herbicidal effect, barnyard grass ([1]; 10 g./a.): 4
Herbicidal effect, barnyard grass ([1]; 20 g./a.): 5
Herbicidal effect, barnyard grass ([1]; 40 g./a.): 5
Herbicidal effect, large crabgrass ([2]; 10 g./a.): 4
Herbicidal effect, large crabgrass ([2]; 20 g./a.): 5
Herbicidal effect, large crabgrass ([2]; 40 g./a.): 5
Herbicidal effect, radish (radish; 10 g./a.): 0
Herbicidal effect, radish (radish; 20 g./a.): 0
Herbicidal effect, radish (radish; 40 g./a.): 0
Herbicidal effect, redroot pigweed ([3]; 10 g./a.): 3
Herbicidal effect, redroot pigweed ([3]; 20 g./a.): 4
Herbicidal effect, redroot pigweed ([3]; 40 g./a.): 5
Herbicidal effect, common purslane ([4]; 10 g./a.): 4
Herbicidal effect, common purslane ([4]; 20 g./a.): 4
Herbicidal effect, common purslane ([4]; 40 g./a.): 4
Herbicidal effect, common lambsquarter ([5]; 10 g./a.): 4
Herbicidal effect, common lambsquarter ([5]; 20 g./a.): 4
Herbicidal effect, common lambsquarter ([5]; 40 g./a.): 5
Phytotoxicity on rice (rice; 10 g/a): 0
Phytotoxicity on rice (rice; 20 g/a): 0
Phytotoxicity on rice (rice; 40 g/a): 0
Herbicidal effects, barnyard grass ([6]; 10 g/a): 5
Herbicidal effects, barnyard grass ([6]; 20 g/a): 5
Herbicidal effects, barnyard grass ([6]; 40 g/a): 5
Herbicidal effects, broad-leaved weeds ([7]; 10 g/a): 5
Herbicidal effects, broad-leaved weeds ([7]; 20 g/a): 5
Herbicidal effects, broad-leaved weeds ([7]; 40 g/a): 5
